Laboratory results published in publication PMC7150796 (Viruses, 2020).
Entries after “also recorded” stand apart in the source; their conditions may differ. Like-named read-outs stand apart in the source and are kept apart here.

How the values were obtained:
[1] = Resazurin cell viability (cell toxicity) assay; conditions: African green monkey
rZIKV-ZsGreen [2] = assay: microbe, parasite or virus in culture; assay type: cell-based, Zika virus; conditions: 24 h; for EC50 / EC90: Zika virus, Vero; for EC50: read-out: Inhibition Efficacy EC50; for EC90: read-out: Inhibition Efficacy EC90; for Inhibition Efficacy EC50 / Inhibition Efficacy EC90: rZIKV-ZsGreen, Vero B4 cells, inhibition of ZsGreen expression, highest concentration 100 µM
ZIKV [3] = assay: Focus-forming assay, ZIKV; assay type: cell-based, Zika virus; conditions: MOI 0.1, Vero B4, 24 hpi
rZIKV-ZsGreen [4] = assay: Time of drug addition assay
JEV = assay: Focus-forming assay, JEV; assay type: cell-based, Japanese encephalitis virus
DENV2 = assay: Focus-forming assay, DENV2; assay type: cell-based, dengue virus type 2
TBEV = assay type: cell-based, tick-borne encephalitis virus; conditions: MOI 0.1, Vero B4, 24 hpi
WNV = assay: Focus-forming assay, WNV; assay type: cell-based, West Nile virus
YFV = assay type: cell-based, yellow fever virus; conditions: MOI 0.1, Vero B4, 48 hpi
[5] = test system: wt ZIKV African lineage (MR766, Uganda strain); assay: Plaque inhibition assay, wt ZIKV African lineage; assay type: cell-based, Zika virus; conditions: 2.5 µM, Vero B4 cells, 4 days
[6] = test system: two wt ZIKV lineages, Asian and African; assay type: cell-based, Zika virus; conditions: 2.5 µM
[7] = test system: wt ZIKV Asian lineage (BeH819015, Brazil strain); assay: Plaque inhibition assay, wt ZIKV Asian lineage; conditions: Vero B4 cells, 4 days
ZIKV [8] = conditions: ref 40 (Lei Cai et al.); read-out: EC50 against ZIKV; cited from earlier work
in vitro = conditions: African green monkey

SMILES	viability at 24 h, 25 µM [1]	viability at 24 h, 50 µM [1]	viability at 24 h, 100 µM [1]	EC50 (rZIKV-ZsGreen [2])	EC90 (rZIKV-ZsGreen [2])	viral titer reduction (JEV)	viral titer reduction (DENV2)	viral titer reduction (WNV)	Inhibition Efficacy EC50 (rZIKV-ZsGreen [2])	Inhibition Efficacy EC90 (rZIKV-ZsGreen [2])	other results
O=C(Nc1ccccc1C(=O)Nc1ccccc1C(=O)O)c1ccccc1 [Benzavir-1, 2-{[2-(benzoylamino)benzoyl]amino}-benzoic acid]	98.8 ± 3.4%	88.3 ± 1.4%	88.1 ± 2.1%	3 ± 0.1 µM	3.3 ± 0.1 µM						
O=C(Nc1cc(F)c(F)cc1C(=O)Nc1ccccc1C(=O)O)c1ccccc1F [Benzavir-2, 2-[4,5-Difluoro-2-(2-fluorobenzoylamino)-benzoylamino]benzoic acid]	100 ± 1.8%	96.8 ± 0.6%	94.3 ± 1.8%	0.8 ± 0.1 µM	1.2 ± 0.3 µM	7.5 × 10^3 fold	5.6 × 10^4 fold	2.2 × 10^4 fold			viral titer reduction (ZIKV [3]; benzavir-2 2.5 µM): 1.0 × 10^3 fold; inhibitory effect, time of addition (rZIKV-ZsGreen [4]; 10 µM added at 2–4 h post-infection, read 24 h): most pronounced; inhibitory effect, time of addition (rZIKV-ZsGreen [4]; 10 µM, binding and entry steps (0–2 h), read 24 h): less affected; inhibitory effect, time of addition (rZIKV-ZsGreen [4]; 10 µM, later time-points post-infection, read 24 h): less inhibition; inhibitory effect, time of addition (rZIKV-ZsGreen [4]; 10 µM, pre-incubation prior to infection (−2 h), compared to 2–4 h): much lower; viral titer reduction (TBEV; benzavir-2 2.5 µM): 7.5 × 10^3 fold; viral titer reduction (YFV; benzavir-2 2.5 µM): 1.5 × 10^3 fold; reduction of plaque formation [5]: 94%; CPE in cells infected with progeny virus from treated cells ([6]; day 2 post-progeny virus transfer): minor CPE; plaque formation in cells infected with progeny virus from treated cells ([6]; day 4, crystal violet): only a few visible plaques; reduction of plaque formation ([7]; 2.5 µM, Asian lineage): 88%; plaque formation, dose-dependent ([7]; benzavir-2 from 20 to 0.6 µM): significant reduction of plaque formation at all applied concentrations
CC(C)(C)C(=O)Nc1cc(F)c(F)cc1C(=O)Nc1ccccc1C(=O)O [Compound 17d]	105.1 ± 0.1%	106 ± 4.2%	104.9 ± 0.9%						no antiviral activity; also recorded: Not achieved	Not achieved	
O=C(Nc1cc(Cl)ccc1C(=O)Nc1ccccc1C(=O)O)c1ccccc1F [Compound 35f]	105 ± 5%	96.5 ± 3.7%	92.1 ± 3.9%	6.1 ± 1.4 µM	14.9 ± 0.9 µM						
NC(=O)c1nc(F)c[nH]c1=O [Favipiravir, reference compound]									Not achieved	Not achieved	viability at 24 h, 25 µM ([1]; Vero B4 cells): 97.4 ± 0.7%; viability at 24 h, 50 µM ([1]; Vero B4 cells): 95 ± 1.4%; viability at 24 h, 100 µM ([1]; Vero B4 cells): 97.9 ± 2.2%; EC50 (ZIKV [8]): 111 ± 13.1 µM; Inhibition Efficacy EC50 (rZIKV-ZsGreen [2]; listed as favipiravir): no antiviral activity
NC(=O)c1ncn([C@@H]2O[C@H](CO)[C@@H](O)[C@H]2O)n1 [Ribavirin, reference compound]				45.5 ± 13.5 µM	114 ± 18 µM	no significant activity	1.1 × 10^1 fold	no significant activity			viral titer reduction (ZIKV [3]; ribavirin 50 µM): 1.0 × 10^1 fold; viability at 24 h, 25 µM (in vitro): 96 ± 1%; viability at 24 h, 50 µM (in vitro): 95 ± 2.8%; viability at 24 h, 100 µM (in vitro): 93.5 ± 3.4%; viral titer reduction (TBEV; ribavirin 50 µM): 1.2 × 10^1 fold; viral titer reduction (YFV; ribavirin 50 µM): 0.9 × 10^1 fold; plaque formation, dose-dependent ([7]; ribavirin from 200 to 6.3 µM): only showed inhibition of plaque formation at 200 µM
